Measured values as given in publication PMC6199309, “A therapeutic approach to pantothenate kinase associated neurodegeneration” (Nature Communications, 2018).

Legend:
VEGFR2 = target: T1, VEGFR2 (Homo sapiens, UniProt P35968); experiment: KINOMEscan; format: binding; conditions: read-out: %Ctrl @ 10000nM
T1 construct: DNA label for qPCR (T7 phage fusion or DNA tag); purchased DiscoverX scanMAX; host or cells: E. coli BL21-derived (T7 phage) or HEK-293

TRKC = target: T2, TRKC (Homo sapiens, UniProt Q16288); experiment: KINOMEscan; format: binding; conditions: read-out: %Ctrl @ 10000nM
T2 construct: purchased DiscoverX KINOMEscan

CSF1R-autoinhibited = target: T3, CSF1R-autoinhibited (Homo sapiens, UniProt P07333); experiment: KINOMEscan; format: binding; conditions: read-out: %Ctrl @ 10000nM
T3 construct: purchased DiscoverX KINOMEscan

FGFR2 = target: T4, FGFR2 (Homo sapiens, UniProt P21802); experiment: KINOMEscan; format: binding; conditions: read-out: %Ctrl @ 10000nM
T4 construct: purchased DiscoverX KINOMEscan

AAK1 = target: T5, AAK1 (Homo sapiens, UniProt Q2M2I8); experiment: KINOMEscan; format: binding; conditions: read-out: %Ctrl @ 10000nM
T5 construct: purchased DiscoverX KINOMEscan

AKT2 = target: T6, AKT2 (Homo sapiens, UniProt P31751); experiment: KINOMEscan; format: binding; conditions: read-out: %Ctrl @ 10000nM
T6 construct: purchased DiscoverX KINOMEscan

LATS1 = target: T7, LATS1 (Homo sapiens, UniProt O95835); experiment: KINOMEscan; format: binding; conditions: read-out: %Ctrl @ 10000nM
T7 construct: purchased DiscoverX KINOMEscan

[1] = target: T8, ABL1(H396P)-phosphorylated (Homo sapiens, UniProt P00519, H396P); experiment: KINOMEscan; format: binding; conditions: read-out: %Ctrl @ 10000nM
T8 construct: purchased DiscoverX KINOMEscan

WNK3 = target: T9, WNK3 (Homo sapiens, UniProt Q9BYP7); experiment: KINOMEscan; format: binding; conditions: read-out: %Ctrl @ 10000nM
T9 construct: DNA label for qPCR (T7 phage fusion or DNA tag); purchased DiscoverX scanMAX; host or cells: E. coli BL21-derived (T7 phage) or HEK-293

MAP4K5 = target: T10, MAP4K5 (Homo sapiens, UniProt Q9Y4K4); experiment: KINOMEscan; format: binding; conditions: read-out: %Ctrl @ 10000nM
T10 construct: purchased DiscoverX KINOMEscan

Protein binding = conditions: human
[2] = target: T11, ABL1(M351T)-phosphorylated (Homo sapiens, UniProt P00519, M351T); experiment: KINOMEscan; format: binding; conditions: read-out: %Ctrl @ 10000nM
T11 construct: purchased DiscoverX KINOMEscan

AURKB = target: T12, AURKB (Homo sapiens, UniProt Q96GD4); experiment: KINOMEscan; format: binding; conditions: read-out: %Ctrl @ 10000nM
T12 construct: purchased DiscoverX KINOMEscan

TTK = target: T13, TTK (Homo sapiens, UniProt P33981); experiment: KINOMEscan; format: binding; conditions: read-out: %Ctrl @ 10000nM
T13 construct: DNA label for qPCR (T7 phage fusion or DNA tag); purchased DiscoverX scanMAX; host or cells: E. coli BL21-derived (T7 phage) or HEK-293

AMPK-alpha1 = target: T14, AMPK-alpha1 (Homo sapiens, UniProt Q13131); experiment: KINOMEscan; format: binding; conditions: read-out: %Ctrl @ 10000nM
T14 construct: purchased DiscoverX KINOMEscan

EGFR(T790M) = target: T15, EGFR(T790M) (Homo sapiens, UniProt P00533, T790M); experiment: KINOMEscan; format: binding; conditions: read-out: %Ctrl @ 10000nM
T15 construct: purchased DiscoverX KINOMEscan

TAOK3 = target: T16, TAOK3 (Homo sapiens, UniProt Q9H2K8); experiment: KINOMEscan; format: binding; conditions: read-out: %Ctrl @ 10000nM
T16 construct: purchased DiscoverX KINOMEscan

CDC2L1 = target: T17, CDC2L1 (Homo sapiens, UniProt P21127); experiment: KINOMEscan; format: binding; conditions: read-out: %Ctrl @ 10000nM
T17 construct: purchased DiscoverX KINOMEscan

CHEK1 = target: T18, CHEK1 (Homo sapiens, UniProt O14757); experiment: KINOMEscan; format: binding; conditions: read-out: %Ctrl @ 10000nM
T18 construct: purchased DiscoverX KINOMEscan

FGFR3 = target: T19, FGFR3 (Homo sapiens, UniProt P22607); experiment: KINOMEscan; format: binding; conditions: read-out: %Ctrl @ 10000nM
T19 construct: purchased DiscoverX KINOMEscan

EGFR(L858R,T790M) = target: T20, EGFR(L858R,T790M) (Homo sapiens, UniProt P00533, L858R/T790M); experiment: KINOMEscan; format: binding; conditions: read-out: %Ctrl @ 10000nM
T20 construct: purchased DiscoverX KINOMEscan

BRAF = target: T21, BRAF (Homo sapiens, UniProt P15056); experiment: KINOMEscan; format: binding; conditions: read-out: %Ctrl @ 10000nM
T21 construct: purchased DiscoverX KINOMEscan

BMPR1B = target: T22, BMPR1B (Homo sapiens, UniProt O00238); experiment: KINOMEscan; format: binding; conditions: read-out: %Ctrl @ 10000nM
T22 construct: purchased DiscoverX KINOMEscan

BLK = target: T23, BLK (Homo sapiens, UniProt P51451); experiment: KINOMEscan; format: binding; conditions: read-out: %Ctrl @ 10000nM
T23 construct: purchased DiscoverX KINOMEscan

LKB1 = target: T24, LKB1 (Homo sapiens, UniProt Q15831); experiment: KINOMEscan; format: binding; conditions: read-out: %Ctrl @ 10000nM
T24 construct: purchased DiscoverX KINOMEscan

ASK2 = target: T25, ASK2 (Homo sapiens, UniProt O95382); experiment: KINOMEscan; format: binding; conditions: read-out: %Ctrl @ 10000nM
T25 construct: purchased DiscoverX KINOMEscan

GRK4 = target: T26, GRK4 (Homo sapiens, UniProt P32298); experiment: KINOMEscan; format: binding; conditions: read-out: %Ctrl @ 10000nM
T26 construct: purchased DiscoverX KINOMEscan

[3] = target: T27, TYK2(JH1domain-catalytic) (Homo sapiens, UniProt P29597); experiment: KINOMEscan; format: binding; conditions: read-out: %Ctrl @ 10000nM
T27 construct: TYK2(JH1domain-catalytic); DNA label for qPCR (T7 phage fusion or DNA tag); purchased DiscoverX scanMAX; host or cells: E. coli BL21-derived (T7 phage) or HEK-293

EPHA6 = target: T28, EPHA6 (Homo sapiens, UniProt Q9UF33); experiment: KINOMEscan; format: binding; conditions: read-out: %Ctrl @ 10000nM
T28 construct: purchased DiscoverX KINOMEscan

HIPK2 = target: T29, HIPK2 (Homo sapiens, UniProt Q9H2X6); experiment: KINOMEscan; format: binding; conditions: read-out: %Ctrl @ 10000nM
T29 construct: purchased DiscoverX KINOMEscan

PIK3CA(C420R) = target: T30, PIK3CA(C420R) (Homo sapiens, UniProt P42336, C420R); experiment: KINOMEscan; format: binding; conditions: read-out: %Ctrl @ 10000nM
T30 construct: purchased DiscoverX KINOMEscan

GRK7 = target: T31, GRK7 (Homo sapiens, UniProt Q8WTQ7); experiment: KINOMEscan; format: binding; conditions: read-out: %Ctrl @ 10000nM
T31 construct: purchased DiscoverX KINOMEscan

[4] = target: T32, RSK1(Kin.Dom.2-C-terminal) (Homo sapiens, UniProt Q15418); experiment: KINOMEscan; format: binding; conditions: read-out: %Ctrl @ 10000nM
T32 construct: RSK1(Kin.Dom.2-C-terminal); purchased DiscoverX KINOMEscan

MST1R = target: T33, MST1R (Homo sapiens, UniProt Q04912); experiment: KINOMEscan; format: binding; conditions: read-out: %Ctrl @ 10000nM
T33 construct: purchased DiscoverX KINOMEscan

MAPKAPK5 = target: T34, MAPKAPK5 (Homo sapiens, UniProt Q8IW41); experiment: KINOMEscan; format: binding; conditions: read-out: %Ctrl @ 10000nM
T34 construct: purchased DiscoverX KINOMEscan

LIMK1 = target: T35, LIMK1 (Homo sapiens, UniProt P53667); experiment: KINOMEscan; format: binding; conditions: read-out: %Ctrl @ 10000nM
T35 construct: purchased DiscoverX KINOMEscan

WEE2 = target: T36, WEE2 (Homo sapiens, UniProt P0C1S8); experiment: KINOMEscan; format: binding; conditions: read-out: %Ctrl @ 10000nM
T36 construct: DNA label for qPCR (T7 phage fusion or DNA tag); purchased DiscoverX scanMAX; host or cells: E. coli BL21-derived (T7 phage) or HEK-293

MTOR = target: T37, MTOR (Homo sapiens, UniProt P42345); experiment: KINOMEscan; format: binding; conditions: read-out: %Ctrl @ 10000nM
T37 construct: purchased DiscoverX KINOMEscan

ERK1 = target: T38, ERK1 (Homo sapiens, UniProt P27361); experiment: KINOMEscan; format: binding; conditions: read-out: %Ctrl @ 10000nM
T38 construct: purchased DiscoverX KINOMEscan

DDR1 = target: T39, DDR1 (Homo sapiens, UniProt Q08345); experiment: KINOMEscan; format: binding; conditions: read-out: %Ctrl @ 10000nM
T39 construct: purchased DiscoverX KINOMEscan

MEK5 = target: T40, MEK5 (Homo sapiens, UniProt Q13163); experiment: KINOMEscan; format: binding; conditions: read-out: %Ctrl @ 10000nM
T40 construct: purchased DiscoverX KINOMEscan

T19 sequence (P22607 23-806): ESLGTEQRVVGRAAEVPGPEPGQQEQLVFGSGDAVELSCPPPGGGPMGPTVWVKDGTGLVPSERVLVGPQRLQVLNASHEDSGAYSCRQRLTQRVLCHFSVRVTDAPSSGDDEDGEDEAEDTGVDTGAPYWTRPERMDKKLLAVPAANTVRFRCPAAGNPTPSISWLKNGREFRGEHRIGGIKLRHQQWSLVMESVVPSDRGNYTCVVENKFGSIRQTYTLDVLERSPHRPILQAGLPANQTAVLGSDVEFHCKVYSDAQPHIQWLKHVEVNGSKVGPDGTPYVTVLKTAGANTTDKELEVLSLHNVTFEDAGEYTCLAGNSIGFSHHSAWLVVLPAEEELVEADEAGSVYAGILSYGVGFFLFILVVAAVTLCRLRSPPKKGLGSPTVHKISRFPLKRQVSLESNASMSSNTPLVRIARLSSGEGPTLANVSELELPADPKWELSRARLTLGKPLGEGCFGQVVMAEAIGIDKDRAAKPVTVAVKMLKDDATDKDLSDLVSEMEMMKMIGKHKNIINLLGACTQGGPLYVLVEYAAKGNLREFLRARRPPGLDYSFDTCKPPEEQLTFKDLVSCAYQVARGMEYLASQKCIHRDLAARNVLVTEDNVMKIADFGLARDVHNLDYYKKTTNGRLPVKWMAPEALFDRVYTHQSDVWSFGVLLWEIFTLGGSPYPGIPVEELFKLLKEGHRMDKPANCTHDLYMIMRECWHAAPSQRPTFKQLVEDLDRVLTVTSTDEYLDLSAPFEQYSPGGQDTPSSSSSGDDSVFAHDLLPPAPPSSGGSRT
T29 sequence (Q9H2X6 whole entry): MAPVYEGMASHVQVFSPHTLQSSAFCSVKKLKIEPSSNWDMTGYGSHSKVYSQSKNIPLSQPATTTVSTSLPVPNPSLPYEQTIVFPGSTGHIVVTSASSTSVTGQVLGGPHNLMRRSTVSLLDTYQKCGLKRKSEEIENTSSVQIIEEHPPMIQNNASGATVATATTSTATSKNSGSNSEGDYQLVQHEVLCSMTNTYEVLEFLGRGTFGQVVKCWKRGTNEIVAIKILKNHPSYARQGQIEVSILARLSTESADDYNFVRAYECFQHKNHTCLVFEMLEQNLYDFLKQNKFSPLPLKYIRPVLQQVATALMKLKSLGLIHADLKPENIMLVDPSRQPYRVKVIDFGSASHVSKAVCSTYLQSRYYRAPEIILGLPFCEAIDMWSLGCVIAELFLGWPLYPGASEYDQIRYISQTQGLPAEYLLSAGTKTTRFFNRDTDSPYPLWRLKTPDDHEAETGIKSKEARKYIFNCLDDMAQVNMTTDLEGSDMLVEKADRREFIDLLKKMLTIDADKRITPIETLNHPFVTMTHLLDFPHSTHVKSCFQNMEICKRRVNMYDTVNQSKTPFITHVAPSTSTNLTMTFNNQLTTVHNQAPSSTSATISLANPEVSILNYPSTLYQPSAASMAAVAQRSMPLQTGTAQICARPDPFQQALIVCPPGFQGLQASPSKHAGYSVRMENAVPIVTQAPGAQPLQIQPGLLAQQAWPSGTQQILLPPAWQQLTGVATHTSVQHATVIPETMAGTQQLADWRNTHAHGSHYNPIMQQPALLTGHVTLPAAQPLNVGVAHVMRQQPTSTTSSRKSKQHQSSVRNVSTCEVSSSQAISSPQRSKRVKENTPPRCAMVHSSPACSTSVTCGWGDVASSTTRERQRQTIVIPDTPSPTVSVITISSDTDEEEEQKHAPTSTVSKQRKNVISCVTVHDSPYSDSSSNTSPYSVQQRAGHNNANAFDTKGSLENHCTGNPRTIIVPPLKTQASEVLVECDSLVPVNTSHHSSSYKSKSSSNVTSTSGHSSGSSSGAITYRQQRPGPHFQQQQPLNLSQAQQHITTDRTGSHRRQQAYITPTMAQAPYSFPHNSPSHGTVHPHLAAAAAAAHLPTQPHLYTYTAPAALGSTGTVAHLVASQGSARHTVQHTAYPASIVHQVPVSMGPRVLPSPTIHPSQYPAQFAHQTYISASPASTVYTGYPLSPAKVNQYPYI
T21 sequence (P15056 whole entry): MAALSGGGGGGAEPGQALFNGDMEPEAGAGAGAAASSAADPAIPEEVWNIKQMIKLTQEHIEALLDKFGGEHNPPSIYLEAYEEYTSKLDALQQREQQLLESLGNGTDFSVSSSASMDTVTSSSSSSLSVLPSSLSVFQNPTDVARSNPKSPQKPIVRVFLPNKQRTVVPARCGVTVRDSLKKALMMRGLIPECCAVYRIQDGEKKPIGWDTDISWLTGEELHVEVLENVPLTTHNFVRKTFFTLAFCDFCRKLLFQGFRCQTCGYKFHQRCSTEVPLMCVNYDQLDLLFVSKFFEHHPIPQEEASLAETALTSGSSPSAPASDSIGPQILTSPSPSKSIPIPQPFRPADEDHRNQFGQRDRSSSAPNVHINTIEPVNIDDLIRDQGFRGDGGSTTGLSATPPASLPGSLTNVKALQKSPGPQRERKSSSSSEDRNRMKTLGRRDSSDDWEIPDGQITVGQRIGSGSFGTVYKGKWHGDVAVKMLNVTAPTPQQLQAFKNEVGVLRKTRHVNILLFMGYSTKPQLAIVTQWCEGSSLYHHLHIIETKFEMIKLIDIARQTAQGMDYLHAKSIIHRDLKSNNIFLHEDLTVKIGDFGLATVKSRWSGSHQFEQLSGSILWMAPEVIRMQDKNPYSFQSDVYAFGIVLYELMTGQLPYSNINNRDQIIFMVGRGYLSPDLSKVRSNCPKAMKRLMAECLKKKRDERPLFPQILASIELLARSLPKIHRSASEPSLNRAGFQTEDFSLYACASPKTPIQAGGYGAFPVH
T24 sequence (Q15831 whole entry): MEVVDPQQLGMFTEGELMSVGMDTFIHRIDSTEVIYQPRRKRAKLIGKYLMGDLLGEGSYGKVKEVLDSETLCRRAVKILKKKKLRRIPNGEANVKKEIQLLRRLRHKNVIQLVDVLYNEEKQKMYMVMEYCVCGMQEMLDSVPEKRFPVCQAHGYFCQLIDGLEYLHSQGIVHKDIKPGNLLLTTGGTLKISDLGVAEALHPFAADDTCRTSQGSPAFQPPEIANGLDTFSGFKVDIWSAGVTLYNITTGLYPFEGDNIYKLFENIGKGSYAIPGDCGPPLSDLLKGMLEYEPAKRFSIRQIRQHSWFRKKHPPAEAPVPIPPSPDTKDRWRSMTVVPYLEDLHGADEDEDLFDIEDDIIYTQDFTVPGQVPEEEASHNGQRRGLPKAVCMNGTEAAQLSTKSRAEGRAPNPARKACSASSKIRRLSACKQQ
T36 sequence (P0C1S8 whole entry, the tested form may be a part): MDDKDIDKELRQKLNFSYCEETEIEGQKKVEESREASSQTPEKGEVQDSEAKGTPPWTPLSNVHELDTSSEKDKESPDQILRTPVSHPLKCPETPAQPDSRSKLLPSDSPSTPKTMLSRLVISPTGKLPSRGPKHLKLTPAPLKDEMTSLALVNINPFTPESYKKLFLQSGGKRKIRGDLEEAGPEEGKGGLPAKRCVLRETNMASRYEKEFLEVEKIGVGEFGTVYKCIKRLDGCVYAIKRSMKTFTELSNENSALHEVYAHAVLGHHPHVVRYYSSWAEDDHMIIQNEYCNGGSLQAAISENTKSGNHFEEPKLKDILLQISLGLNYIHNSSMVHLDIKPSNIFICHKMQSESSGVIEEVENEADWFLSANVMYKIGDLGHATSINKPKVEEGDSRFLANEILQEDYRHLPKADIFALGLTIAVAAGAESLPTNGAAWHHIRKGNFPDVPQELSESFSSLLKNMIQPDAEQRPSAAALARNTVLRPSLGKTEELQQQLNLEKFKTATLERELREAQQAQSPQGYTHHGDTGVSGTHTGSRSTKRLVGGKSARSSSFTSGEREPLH
T25 sequence (O95382 whole entry): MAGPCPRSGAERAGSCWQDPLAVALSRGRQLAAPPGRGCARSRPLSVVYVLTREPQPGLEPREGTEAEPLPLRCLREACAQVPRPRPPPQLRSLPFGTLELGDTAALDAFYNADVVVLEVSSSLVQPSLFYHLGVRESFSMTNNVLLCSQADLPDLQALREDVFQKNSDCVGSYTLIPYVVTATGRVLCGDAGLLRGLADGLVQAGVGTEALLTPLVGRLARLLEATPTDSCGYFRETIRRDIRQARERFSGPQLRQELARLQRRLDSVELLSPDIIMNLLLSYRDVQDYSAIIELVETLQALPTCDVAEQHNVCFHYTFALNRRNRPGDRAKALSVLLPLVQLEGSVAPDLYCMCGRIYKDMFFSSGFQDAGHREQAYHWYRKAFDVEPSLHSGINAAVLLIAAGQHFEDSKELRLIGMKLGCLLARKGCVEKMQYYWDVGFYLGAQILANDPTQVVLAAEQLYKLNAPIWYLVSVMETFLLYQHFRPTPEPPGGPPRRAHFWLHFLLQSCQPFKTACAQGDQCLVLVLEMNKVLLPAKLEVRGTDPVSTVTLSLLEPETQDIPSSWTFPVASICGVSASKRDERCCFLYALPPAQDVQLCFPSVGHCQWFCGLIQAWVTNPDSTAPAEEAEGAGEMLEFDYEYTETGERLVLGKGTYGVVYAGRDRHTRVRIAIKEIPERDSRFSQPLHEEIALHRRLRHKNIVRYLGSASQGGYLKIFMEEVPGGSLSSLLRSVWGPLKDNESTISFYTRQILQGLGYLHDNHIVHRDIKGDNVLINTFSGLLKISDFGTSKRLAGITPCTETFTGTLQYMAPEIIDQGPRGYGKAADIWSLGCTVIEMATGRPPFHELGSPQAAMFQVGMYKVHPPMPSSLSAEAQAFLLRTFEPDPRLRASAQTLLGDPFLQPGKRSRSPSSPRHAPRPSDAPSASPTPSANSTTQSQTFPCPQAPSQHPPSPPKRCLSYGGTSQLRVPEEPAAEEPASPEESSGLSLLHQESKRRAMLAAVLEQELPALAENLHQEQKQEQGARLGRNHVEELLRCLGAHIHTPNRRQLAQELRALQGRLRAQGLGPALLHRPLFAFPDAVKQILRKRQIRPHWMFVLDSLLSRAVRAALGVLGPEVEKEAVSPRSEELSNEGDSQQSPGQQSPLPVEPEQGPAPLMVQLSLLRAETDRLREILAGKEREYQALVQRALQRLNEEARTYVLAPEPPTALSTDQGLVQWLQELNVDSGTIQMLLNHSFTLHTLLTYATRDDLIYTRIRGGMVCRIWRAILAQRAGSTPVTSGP

CC(C)c1ccc(CC(=O)N2CCN(c3ccc(C#N)nn3)CC2)cc1 [PZ-2891, 6-(4-(2-(4-isopropylphenyl)acetyl)piperazin-1-yl)pyridazine-3-carbonitrile]
remaining binding at 10 µM (VEGFR2): 75%
remaining binding at 10 µM (TRKC): 100%
remaining binding at 10 µM (CSF1R-autoinhibited): 93%
remaining binding at 10 µM (FGFR2): 100%
remaining binding at 10 µM (AAK1): 84%
remaining binding at 10 µM (AKT2): 85%
remaining binding at 10 µM (LATS1): 86%
remaining binding at 10 µM [1]: 76%
remaining binding at 10 µM (WNK3): 100%
remaining binding at 10 µM (MAP4K5): 100%
fraction unbound (Protein binding): 0.07
remaining binding at 10 µM [2]: 96%
remaining binding at 10 µM (AURKB): 89%
remaining binding at 10 µM (TTK): 96%
remaining binding at 10 µM (AMPK-alpha1): 92%
remaining binding at 10 µM (EGFR(T790M)): 78%
remaining binding at 10 µM (TAOK3): 95%
remaining binding at 10 µM (CDC2L1): 95%
remaining binding at 10 µM (CHEK1): 83%
remaining binding at 10 µM (FGFR3): 96%
remaining binding at 10 µM (EGFR(L858R,T790M)): 98%
remaining binding at 10 µM (BRAF): 100%
remaining binding at 10 µM (BMPR1B): 60%
remaining binding at 10 µM (BLK): 87%
remaining binding at 10 µM (LKB1): 93%
remaining binding at 10 µM (ASK2): 83%
remaining binding at 10 µM (GRK4): 52%
remaining binding at 10 µM [3]: 67%
remaining binding at 10 µM (EPHA6): 89%
remaining binding at 10 µM (HIPK2): 100%
remaining binding at 10 µM (PIK3CA(C420R)): 76%
remaining binding at 10 µM (GRK7): 93%
remaining binding at 10 µM [4]: 64%
remaining binding at 10 µM (MST1R): 73%
remaining binding at 10 µM (MAPKAPK5): 74%
remaining binding at 10 µM (LIMK1): 87%
remaining binding at 10 µM (WEE2): 99%
remaining binding at 10 µM (MTOR): 68%
remaining binding at 10 µM (ERK1): 91%
remaining binding at 10 µM (DDR1): 81%
remaining binding at 10 µM (MEK5): 69%
